Source: ChEMBL document CHEMBL1921678, “The discovery of novel cyclohexylamide CCR2 antagonists” (Bioorg Med Chem Lett, 2011)
Calls of active or inactive are those of the source. The rule behind the calls is not given here.

Legend:
[1] = target: T1, Voltage-gated inwardly rectifying potassium channel KCNH2 (Homo sapiens, UniProt Q12809); assay: Inhibition of human ERG
[2] = target: C-C chemokine receptor type 2 (Homo sapiens, UniProt P41597); assay: Antagonist activity at human CCR2; type: functional
C-C chemokine receptor type 2, sequence (P41597 whole entry): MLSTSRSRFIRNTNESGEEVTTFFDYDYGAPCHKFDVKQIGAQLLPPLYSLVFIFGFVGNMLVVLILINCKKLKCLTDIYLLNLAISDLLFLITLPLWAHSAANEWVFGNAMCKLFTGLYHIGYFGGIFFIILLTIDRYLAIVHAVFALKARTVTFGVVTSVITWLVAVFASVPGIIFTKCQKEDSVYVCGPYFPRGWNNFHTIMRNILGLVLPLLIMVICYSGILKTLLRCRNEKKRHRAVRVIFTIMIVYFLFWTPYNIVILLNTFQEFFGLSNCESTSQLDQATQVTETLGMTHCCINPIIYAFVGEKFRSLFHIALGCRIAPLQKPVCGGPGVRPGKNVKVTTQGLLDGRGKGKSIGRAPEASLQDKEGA

[3] = Volume of distribution at steady state in mouse at 2 mg/kg, iv; type: ADME, organism-based; parameters: dose 2 mg/kg, route intravenous; details: in vivo, read-out: Vdss
[4] = Cmax in mouse at 10 mg/kg, po; type: ADME, organism-based; parameters: dose 10 mg/kg, route oral; details: in vivo
Cavia porcellus [5] = assay: Cardiotoxicity in guinea pig hemodynamic model assessed as heart rate at 10 mg/kg, iv; type: toxicity, organism-based; parameters: dose 10 mg/kg, route intravenous; details: in vivo
[6] = Clearance in mouse at 2 mg/kg, iv; type: ADME, organism-based; parameters: dose 2 mg/kg, route intravenous; details: in vivo
[7] = Half life in mouse at 2 mg/kg, iv; type: ADME, organism-based; parameters: dose 2 mg/kg, route intravenous; details: in vivo
Cavia porcellus [8] = assay: Cardiotoxicity in guinea pig hemodynamic model assessed as QTc at 10 mg/kg, iv; type: toxicity, organism-based; parameters: dose 10 mg/kg, route intravenous; details: in vivo
Cavia porcellus [9] = assay: Cardiotoxicity in guinea pig hemodynamic model assessed as PR interval at 10 mg/kg, iv; type: toxicity, organism-based; parameters: dose 10 mg/kg, route intravenous; details: in vivo
[10] = Initial plasma concentration in mouse at 2 mg/kg, iv; type: ADME, organism-based; parameters: dose 2 mg/kg, route intravenous
Cavia porcellus [11] = assay: Cardiotoxicity in guinea pig hemodynamic model assessed as mean arterial pressure at 10 mg/kg, iv; type: toxicity, organism-based, Artery; parameters: dose 10 mg/kg, route intravenous; details: in vivo
Cavia porcellus [12] = assay: Cardiotoxicity in guinea pig hemodynamic model assessed as QT interval at 10 mg/kg, iv; type: toxicity, organism-based; parameters: dose 10 mg/kg, route intravenous; details: in vivo
[13] = Oral bioavailability in mouse at 10 mg/kg; type: ADME, organism-based; details: in vivo
[14] = target: T1, Voltage-gated inwardly rectifying potassium channel KCNH2; assay: Binding affinity to human ERG
[15] = AUC in mouse at 10 mg/kg, po; type: ADME, organism-based; parameters: dose 10 mg/kg, route oral; details: plasma
Cavia porcellus [16] = assay: Cardiotoxicity in guinea pig hemodynamic model assessed as QRS duration at 10 mg/kg, iv; type: toxicity, organism-based; parameters: dose 10 mg/kg, route intravenous; details: in vivo
[17] = target: T1, Voltage-gated inwardly rectifying potassium channel KCNH2; assay: Inhibition of human ERG by patch clamp assay
[18] = Half life in mouse at 10 mg/kg, po; type: ADME, organism-based; parameters: dose 10 mg/kg, route oral; details: in vivo
Mus musculus = assay: Antiinflammatory activity in human CCR2 transgenic C57BL/6 mouse assessed as reduction of thioglycollate-induced peritonitis at 30 mg/kg, po; type: functional, organism-based; parameters: dose 30 mg/kg
[19] = target: C-C chemokine receptor type 2 (Mus musculus) (UniProt P51683); assay: Antagonist activity at mouse CCR2; type: functional
C-C chemokine receptor type 2 (Mus musculus), sequence (P51683 whole entry, looked up): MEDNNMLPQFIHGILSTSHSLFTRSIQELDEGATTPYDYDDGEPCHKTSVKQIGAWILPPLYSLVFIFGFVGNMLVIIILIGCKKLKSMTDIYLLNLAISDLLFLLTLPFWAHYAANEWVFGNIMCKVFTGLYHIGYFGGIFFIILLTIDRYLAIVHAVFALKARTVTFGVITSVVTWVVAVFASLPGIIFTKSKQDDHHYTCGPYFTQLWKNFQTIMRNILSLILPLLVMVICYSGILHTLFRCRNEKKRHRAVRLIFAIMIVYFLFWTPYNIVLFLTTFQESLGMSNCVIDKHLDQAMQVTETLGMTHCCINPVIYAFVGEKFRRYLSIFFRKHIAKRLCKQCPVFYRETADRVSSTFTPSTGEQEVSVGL

T1 sequence (Q12809 whole entry): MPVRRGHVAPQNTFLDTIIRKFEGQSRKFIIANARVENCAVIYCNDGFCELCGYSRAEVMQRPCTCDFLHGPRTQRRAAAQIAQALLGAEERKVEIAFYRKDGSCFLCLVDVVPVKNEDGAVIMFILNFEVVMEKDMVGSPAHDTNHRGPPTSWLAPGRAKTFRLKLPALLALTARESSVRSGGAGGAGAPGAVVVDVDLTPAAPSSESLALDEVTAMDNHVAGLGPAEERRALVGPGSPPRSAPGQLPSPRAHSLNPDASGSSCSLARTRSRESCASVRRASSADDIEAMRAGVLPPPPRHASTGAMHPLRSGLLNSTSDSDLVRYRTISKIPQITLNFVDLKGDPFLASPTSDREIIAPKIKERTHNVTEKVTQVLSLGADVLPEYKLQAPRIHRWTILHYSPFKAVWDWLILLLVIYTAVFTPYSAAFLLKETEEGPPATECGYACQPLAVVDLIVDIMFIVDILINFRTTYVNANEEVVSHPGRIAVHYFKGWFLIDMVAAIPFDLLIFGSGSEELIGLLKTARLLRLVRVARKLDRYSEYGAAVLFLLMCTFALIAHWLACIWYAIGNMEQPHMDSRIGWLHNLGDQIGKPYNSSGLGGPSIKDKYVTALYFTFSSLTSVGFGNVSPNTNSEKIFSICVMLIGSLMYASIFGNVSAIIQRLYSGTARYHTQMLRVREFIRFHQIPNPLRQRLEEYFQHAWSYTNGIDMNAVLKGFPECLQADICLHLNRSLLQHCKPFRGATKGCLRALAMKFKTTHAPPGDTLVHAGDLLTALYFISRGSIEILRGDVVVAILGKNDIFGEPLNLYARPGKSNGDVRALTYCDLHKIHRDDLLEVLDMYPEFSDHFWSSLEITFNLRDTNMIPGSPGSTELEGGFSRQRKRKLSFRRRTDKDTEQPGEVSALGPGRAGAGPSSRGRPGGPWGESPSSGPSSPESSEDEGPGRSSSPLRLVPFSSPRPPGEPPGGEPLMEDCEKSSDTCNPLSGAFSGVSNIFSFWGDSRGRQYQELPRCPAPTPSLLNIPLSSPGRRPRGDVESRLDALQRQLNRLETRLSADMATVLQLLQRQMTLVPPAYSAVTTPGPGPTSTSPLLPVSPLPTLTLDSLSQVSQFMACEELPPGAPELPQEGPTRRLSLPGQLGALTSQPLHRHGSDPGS

Row | SMILES | IC50 [2] [nM] | INH [1] [µM] | further results
1 | NC(=O)C(NC1CCC(c2c[nH]c3ccccc23)CC1)C1CCN(C(=O)/C=C/c2cc(F)cc(F)c2)CC1 (single isomer, unassigned; (-)) |  | 20.375 | 
2 | NC(=O)C(NC1CCC(c2c[nH]c3ccccc23)CC1)C1CCN(C(=O)/C=C/c2ccccc2)CC1 (centres undefined) |  | 7.35 | 
3 | CC(C)C1CCC(NC(C(N)=O)C2CCN(C(=O)/C=C/c3cc(F)c(F)c(F)c3)CC2)CC1 (centres undefined) | 15800 | 6.2 | 
4 | NC(=O)C(NC1CCC(c2c[nH]c3ccccc23)CC1)C1CCN(Cc2ccccc2)CC1 (centres undefined) | > 25000 | 1.769 | 
5 | NC(=O)C(NC1CCC(c2c[nH]c3ccccc23)CC1)C1CCN(C(=O)/C=C/c2cc(F)c(F)c(F)c2)CC1 (centres undefined) |  | 3.3 | 
6 | NC(=O)C(NC1CCC(c2c[nH]c3ccccc23)CC1)C1CCN(C(=O)/C=C\c2cc(F)cc(F)c2)CC1 (cis isomer) |  | 2.2 | 
7 | NC(=O)C(NC1CCC(c2c[nH]c3ccccc23)CC1)C1CCN(C(=O)CCc2ccccc2)CC1 (centres undefined) | > 25000 |  | 
8 | O=C1NC2(CCC(c3c[nH]c4ccccc34)CC2)NC1C1CCN(C(=O)/C=C/c2cc(F)c(F)c(F)c2)CC1 (centres undefined) | 5200 |  | 
9 | NC(=O)C(NC1Cc2ccccc2C1)C1CCN(C(=O)/C=C/c2cc(F)c(F)c(F)c2)CC1 (centres undefined) | 1400 |  | 
10 | NC(=O)C(NC1CCP(=O)(c2ccccc2)CC1)C1CCN(C(=O)/C=C/c2cc(F)c(F)c(F)c2)CC1 (centres undefined) | > 25000 |  | 
11 | NC(=O)C(NC1CCC(c2c[nH]c3ccccc23)CC1)C1CCN(C(=O)/C=C/c2ccccc2F)CC1 (centres undefined) |  | 4.128 | 
12 | NC(=O)C(NC1CCC(c2c[nH]c3ccccc23)CC1)C1CCN(C(=O)Cc2ccccc2)CC1 (centres undefined) | > 25000 | 17.636 | 
13 | NC(=O)C(NC1CCC(c2c[nH]c3ccccc23)CC1)C1CCN(C(=O)/C=C/c2ccc(Cl)cc2)CC1 (centres undefined) |  | 0.87 | 
14 | NC(=O)C(NC1CCC(c2c[nH]c3ccccc23)CC1)C1CCN(C(=O)Nc2ccccc2)CC1 (centres undefined) | 9570 | 14.784 | 
15 | CN(C)c1ccc(/C=C/C(=O)N2CCC(C(NC3CCC(c4c[nH]c5ccccc45)CC3)C(N)=O)CC2)cc1 (centres undefined) | 1890 | > 50 | 
16 | CS(=O)(=O)c1ccc(/C=C/C(=O)N2CCC(C(NC3CCC(c4c[nH]c5ccccc45)CC3)C(N)=O)CC2)cc1 (centres undefined) | 11600 | > 50 | 
17 | NC(=O)C(NC1CCC(c2c[nH]c3ccccc23)CC1)C1CCN(C(=O)c2ccccc2)CC1 (centres undefined) | > 25000 | 5.471 | 
18 | NC(=O)C(NC1CCC(c2c[nH]c3ncccc23)CC1)C1CCN(C(=O)/C=C/c2cc(F)c(F)c(F)c2)CC1 (centres undefined) |  | 8.3 | 
19 | NC(=O)C(NC1CCC(c2c[nH]c3ccccc23)CC1)C1CCN(C(=O)/C=C/c2cc(F)cc(F)c2)CC1 (racemic) [listing 1 of 2 here] |  | 4.906 | Vd [3]: 3.71 L/kg; Cmax [4]: 531 ng/mL; Activity (Cavia porcellus [5]): Non-toxic; clearance [6]: 31 mL/min/kg; half-life [7]: 1.9 h; Activity (Cavia porcellus [8]): Non-toxic; Activity (Cavia porcellus [9]): Non-toxic; C0 [10]: 1020 ng/mL; Activity (Cavia porcellus [11]): Non-toxic; Activity (Cavia porcellus [12]): Non-toxic; bioavailability [13]: 50%; INH [14]: 8 µM; AUC [15]: 2420 ng·h/mL; Activity (Cavia porcellus [16]): Non-toxic; INH [17]: 600 nM; half-life [18]: 2.4 h
20 | O=C(NO)C(NC1CCC(c2c[nH]c3ccccc23)CC1)C1CCN(C(=O)/C=C/c2cc(F)c(F)c(F)c2)CC1 (centres undefined) |  | 41 | 
21 | NC(=O)C(NC1CCC(c2c[nH]c3ccccc23)CC1)C1CCN(C(=O)/C=C/c2cc(F)cc(F)c2)CC1 (trans isomer) |  | 6.6 | 
22 | NC(=O)C(NC1CCC(c2c[nH]c3ccccc23)CC1)C1CCN(C(=O)/C=C/c2ccc(OC(F)(F)F)cc2)CC1 (centres undefined) |  | 1.39 | 
23 | NC(=O)C(NC1CCC(c2c[nH]c3ccccc23)CC1)C1CCN(C(=O)/C=C/c2cc(F)cc(F)c2)CC1 (racemic) [listing 2 of 2 here] |  |  | Activity (Mus musculus): Active; inhibition [19]: inactive
24 | CNC(=O)C(NC1CCC(c2c[nH]c3ccccc23)CC1)C1CCN(C(=O)/C=C/c2cc(F)c(F)c(F)c2)CC1 (centres undefined) |  | 5.4 | 
25 | NC(=O)C(NC1CCc2ccccc21)C1CCN(C(=O)/C=C/c2cc(F)c(F)c(F)c2)CC1 (centres undefined) | 2300 |  | 
26 | NC(=O)C(NC1CCC(c2c[nH]c3ccccc23)CC1)C1CCN(C(=O)/C=C/c2ccc(C(F)(F)F)cc2)CC1 (centres undefined) |  | 1.08 | 
27 | O=C(O)C(C1CCN(C(=O)/C=C/c2cc(F)c(F)c(F)c2)CC1)N1CCC(c2c[nH]c3ccccc23)CC1 (centres undefined) |  | 1.5 | 
28 | COc1ccc(C2CCC(NC(C(N)=O)C3CCN(C(=O)/C=C/c4cc(F)c(F)c(F)c4)CC3)CC2)cn1 (centres undefined) |  | 11.7 | 
29 | CN(C)C(=O)C(NC1CCC(c2c[nH]c3ccccc23)CC1)C1CCN(C(=O)/C=C/c2cc(F)c(F)c(F)c2)CC1 (centres undefined) |  | 4.4 | 
30 | NC(=O)C(NC1CCC(c2c[nH]c3ccccc23)CC1)C1CCN(C(=O)C2CC2c2ccccc2)CC1 (mixture of isomers) | 1300 |  | 

More lines, main results first:

Row | IC50 [2] [nM] | SMILES | INH [1] [µM] | further results
31 | > 25000 | NC(=O)C(NC1CCC(c2c[nH]c3ccccc23)CC1)C1CCN(C(=O)/C=C/c2c(F)cccc2F)CC1 (centres undefined) | 3.734 | 
32 | 64 | NC(=O)C(NC1CCC(c2c[nH]c3ccccc23)CC1)C1CCN(C(=O)/C=C/c2cccc(F)c2)CC1 (centres undefined) | 2.076 | 
33 | 2200 | NC(=O)C(NC1CCC(c2c[nH]c3cnccc23)CC1)C1CCN(C(=O)/C=C/c2cc(F)c(F)c(F)c2)CC1 (centres undefined) | < 0.2 | 
34 | 8600 | CC(NC1CCC(c2c[nH]c3ccccc23)CC1)C1CCN(C(=O)/C=C/c2cc(F)c(F)c(F)c2)CC1 (centres undefined) | 0.29 | 
35 | 36 | NC(=O)C(NC1CCC(c2c[nH]c3ccccc23)CC1)C1CCN(C(=O)/C=C/c2ccc(F)cc2)CC1 (centres undefined) | 2.02 | 
36 | 6000 | NC(=O)C(NC1CCC(c2ccccc2)CC1)C1CCN(C(=O)/C=C/c2cc(F)c(F)c(F)c2)CC1 (centres undefined) | 3.4 | 
37 | 25000 | O=C(/C=C/c1cc(F)c(F)c(F)c1)N1CCC(CNC2CCC(c3c[nH]c4ccccc34)CC2)CC1 (centres undefined) |  | 
38 | 83 | NC(=O)C(NC1CCC(c2c[nH]c3ccncc23)CC1)C1CCN(C(=O)/C=C/c2cc(F)c(F)c(F)c2)CC1 (centres undefined) | 0.97 | 
39 | 1300 | NC(=O)C(NC1CCC(c2ccccc2)C1)C1CCN(C(=O)/C=C/c2cc(F)c(F)c(F)c2)CC1 (centres undefined) |  | 
40 | > 25000 | NC(=O)C(NC1CCC(c2c[nH]c3ccccc23)CC1)C1CN(C(=O)/C=C/c2cc(F)c(F)c(F)c2)C1 (centres undefined) |  | 
41 | 38 | NC(=O)C(NC1CCC(c2c[nH]c3ccccc23)CC1)C1CCN(C(=O)/C=C/c2ccc(F)c(F)c2)CC1 (centres undefined) | 1.714 | 
42 | 50 | O=C(O)C(NC1CCC(c2c[nH]c3ccccc23)CC1)C1CCN(C(=O)/C=C/c2cc(F)c(F)c(F)c2)CC1 (centres undefined) | 31 | 
43 | 35 | NC(=O)C(NC1CCC(c2c[nH]c3cccnc23)CC1)C1CCN(C(=O)/C=C/c2cc(F)c(F)c(F)c2)CC1 (centres undefined) | 6.3 | 
44 | 9200 | O=C(/C=C/c1cc(F)c(F)c(F)c1)N1CCC(C(CO)NC2CCC(c3c[nH]c4ccccc34)CC2)CC1 (centres undefined) | 0.52 | 
45 | 8100 | CN(C1CCC(c2c[nH]c3ccccc23)CC1)C(C(=O)O)C1CCN(C(=O)/C=C/c2cc(F)c(F)c(F)c2)CC1 (centres undefined) |  | 
46 | 900 | COC(=O)C(NC1CCC(c2c[nH]c3ccccc23)CC1)C1CCN(C(=O)/C=C/c2cc(F)c(F)c(F)c2)CC1 (centres undefined) | 2.2 | 
47 | 950 | NC(=O)C(NC1CCC(C2CNc3ccccc32)CC1)C1CCN(C(=O)/C=C/c2cc(F)c(F)c(F)c2)CC1 (centres undefined) | 4.2 | 
